Results: BindingDB's records for patent US11117900 (Vertex Pharmaceuticals, 2021)

Biological target: Serine/threonine-protein kinase ATR (Homo sapiens, UniProt Q13535)
Assay: Inhibition Assay
Protocol: Compounds were screened for their ability to inhibit ATR kinase using a radioactive-phosphate incorporation assay. Assays were carried out in a mixture of 50 mM Tris/HCl (pH 7.5), 10 mM MgCl2 and 1 mM DTT. Final substrate concentrations were 10 μM [γ-33P]ATP (3 mCi 33P ATP/mmol ATP, Perkin Elmer) and 800 μM target peptide ([…]) (SEQ ID NO:1).Assays were carried out at 25° C. in the presence of 5 nM full-length ATR. An assay stock buffer solution was prepared containing all of the reagents listed above, with the exception of ATP and the test compound of interest. 13.5 μL of the stock solution was placed in a 96 well plate followed by addition of 2 μL of DMSO stock containing serial dilutions of the test compound (typically starting from a final concentration of 15 μM with 3-fold serial dilutions) in duplicate (final DMSO concentration 7%). The plate was pre-incubated for 10 minutes at 25° C. and the reaction initiated by addition of 15 μL [γ-33P]ATP (final concentration 10 μM).The reaction was stopped after 24 hours by the addition of […] containing 2 mM ATP. A multiscreen phosphocellulose filter 96-well plate (Millipore, Cat no. MAPHNOB50) was pretreated with 100 μL 0.2M phosphoric acid prior to the addition of […] of the stopped assay mixture. The plate was washed with 5×2004 0.2M phosphoric acid. […]

Chain of Serine/threonine-protein kinase ATR (Q13535 whole entry): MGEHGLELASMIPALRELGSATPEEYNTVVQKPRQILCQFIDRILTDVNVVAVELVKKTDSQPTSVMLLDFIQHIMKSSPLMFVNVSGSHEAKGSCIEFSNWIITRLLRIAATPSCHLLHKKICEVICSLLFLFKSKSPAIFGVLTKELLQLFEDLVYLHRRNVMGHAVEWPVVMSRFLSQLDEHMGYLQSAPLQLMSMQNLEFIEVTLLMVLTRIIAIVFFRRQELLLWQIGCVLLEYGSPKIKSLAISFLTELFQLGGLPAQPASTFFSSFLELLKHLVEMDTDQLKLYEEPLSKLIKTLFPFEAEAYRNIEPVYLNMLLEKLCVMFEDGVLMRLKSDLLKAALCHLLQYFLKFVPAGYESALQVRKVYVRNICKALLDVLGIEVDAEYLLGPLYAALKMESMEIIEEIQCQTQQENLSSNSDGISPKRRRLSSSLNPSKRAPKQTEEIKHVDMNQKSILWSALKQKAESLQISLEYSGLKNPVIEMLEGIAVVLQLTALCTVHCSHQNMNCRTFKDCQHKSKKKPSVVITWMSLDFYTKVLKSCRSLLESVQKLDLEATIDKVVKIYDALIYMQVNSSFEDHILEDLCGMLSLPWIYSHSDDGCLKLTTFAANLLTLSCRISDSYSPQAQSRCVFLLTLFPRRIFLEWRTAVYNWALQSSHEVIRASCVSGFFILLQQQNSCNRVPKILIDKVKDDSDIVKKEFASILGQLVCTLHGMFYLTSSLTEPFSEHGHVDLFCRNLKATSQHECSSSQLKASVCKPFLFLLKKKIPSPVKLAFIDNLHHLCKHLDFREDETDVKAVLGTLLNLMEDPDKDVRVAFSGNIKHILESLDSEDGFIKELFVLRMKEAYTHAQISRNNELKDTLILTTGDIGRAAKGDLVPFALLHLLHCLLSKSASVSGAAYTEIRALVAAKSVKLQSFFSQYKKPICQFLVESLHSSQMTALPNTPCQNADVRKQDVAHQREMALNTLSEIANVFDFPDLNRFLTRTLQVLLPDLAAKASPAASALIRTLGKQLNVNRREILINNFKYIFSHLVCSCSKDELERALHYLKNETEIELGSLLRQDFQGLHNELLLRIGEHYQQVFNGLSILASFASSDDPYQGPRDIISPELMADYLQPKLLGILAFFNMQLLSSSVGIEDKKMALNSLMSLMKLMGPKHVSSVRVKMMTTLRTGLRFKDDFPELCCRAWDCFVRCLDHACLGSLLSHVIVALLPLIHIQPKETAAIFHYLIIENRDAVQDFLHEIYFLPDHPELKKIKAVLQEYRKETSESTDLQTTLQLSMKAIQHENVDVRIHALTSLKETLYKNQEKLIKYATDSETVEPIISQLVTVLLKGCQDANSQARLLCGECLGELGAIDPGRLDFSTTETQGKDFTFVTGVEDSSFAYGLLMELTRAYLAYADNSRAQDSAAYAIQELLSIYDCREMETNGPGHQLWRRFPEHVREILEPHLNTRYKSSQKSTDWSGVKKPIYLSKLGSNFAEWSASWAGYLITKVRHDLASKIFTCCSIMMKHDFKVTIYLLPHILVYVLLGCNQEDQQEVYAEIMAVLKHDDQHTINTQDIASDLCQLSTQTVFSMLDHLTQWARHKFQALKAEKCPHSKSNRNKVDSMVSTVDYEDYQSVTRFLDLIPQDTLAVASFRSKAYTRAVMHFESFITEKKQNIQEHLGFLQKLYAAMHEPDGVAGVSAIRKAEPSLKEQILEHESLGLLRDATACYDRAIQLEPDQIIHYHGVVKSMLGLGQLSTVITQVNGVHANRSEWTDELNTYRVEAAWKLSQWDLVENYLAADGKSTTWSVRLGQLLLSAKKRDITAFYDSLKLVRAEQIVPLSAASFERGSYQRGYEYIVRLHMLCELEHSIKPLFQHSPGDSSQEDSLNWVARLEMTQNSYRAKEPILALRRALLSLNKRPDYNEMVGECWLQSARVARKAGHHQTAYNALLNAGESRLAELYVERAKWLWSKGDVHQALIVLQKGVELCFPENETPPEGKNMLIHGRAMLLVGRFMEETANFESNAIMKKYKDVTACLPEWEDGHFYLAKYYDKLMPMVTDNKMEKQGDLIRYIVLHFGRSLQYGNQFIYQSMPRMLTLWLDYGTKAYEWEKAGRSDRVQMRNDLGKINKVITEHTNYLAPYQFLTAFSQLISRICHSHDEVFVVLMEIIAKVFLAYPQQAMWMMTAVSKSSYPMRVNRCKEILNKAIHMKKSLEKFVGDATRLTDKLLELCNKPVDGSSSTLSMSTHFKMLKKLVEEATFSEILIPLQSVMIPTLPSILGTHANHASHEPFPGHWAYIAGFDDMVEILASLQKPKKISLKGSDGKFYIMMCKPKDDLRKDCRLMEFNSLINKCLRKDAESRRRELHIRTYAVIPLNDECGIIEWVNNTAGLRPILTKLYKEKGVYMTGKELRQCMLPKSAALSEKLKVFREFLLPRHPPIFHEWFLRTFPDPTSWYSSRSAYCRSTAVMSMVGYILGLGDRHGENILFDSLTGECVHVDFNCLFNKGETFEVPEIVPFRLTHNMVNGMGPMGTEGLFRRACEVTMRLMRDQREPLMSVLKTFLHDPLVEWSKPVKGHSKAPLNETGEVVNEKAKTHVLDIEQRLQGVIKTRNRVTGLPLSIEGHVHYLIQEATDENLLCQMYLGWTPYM

- Ki: in the range around 505 nM
Compound: C[N+]1([O-])CCCC(c2ccncc2NC(=O)c2c(N)nn3cc(F)cnc23)C1 (stereo unspecified) [US11117900, Compound I-C-9]
